Reference: patent US11617726B2, “Method for preventing, treating, or ameliorating a microbial infection” (priority 2018, dated 2023)

Legend:
Format in all cases: cell-based
[1] = system: Pseudomonas aeruginosa ATCC 27853; assay: MIC determination by broth dilution method (CLSI M07-A9); details: P. aeruginosa ATCC 27853
Experimental: (§1) Minimum Inhibitory Concentration (MIC) is the lowest concentration of an antimicrobial agent that prevents visible growth of a microorganism in an agar or broth dilution susceptibility test. MIC of thymoquinone was determined by the broth dilution method against 33 MDR Acinetobacter baumannii strains and standard sensitive culture collection strain of Acinetobacter baumannii and Pseudomonas aeruginosa. The MIC of gentamicin was deter lined by broth dilution method against six MDR Acinetobacter baumannii strains and standard sensitive culture collection strains of Acinetobacter baumannii and Pseudomonas aeruginosa. MIC testing was performed according to the recommendations and guidelines of Clinical Laboratory Standard Institutes (CLSI M07-A9; 2012). Clinical and Laboratory Standards Institute (CLSI), “Methods for Dilution Antimicrobial Susceptibility Tests for Bacteria That Grow Aerobically; Approved Standard,” Document M07-A9, Clinical and Laboratory Standards Institute (CLSI), Wayne, Pa., USA, 2012.
(§2) Twenty-one grams of Mueller-Hinton Broth (MHB) was suspended in 1 Liter distilled water and then boiled to dissolve the powder completely. The medium was sterilized by autoclaving at 121° C. for 15 min. After autoclaving, the medium was cooled to room temperature before use or stored in the fridge until used.
(§3) Thymoquinone was weighed and dissolved in Dimethyl sulfoxide (DMSO) to produce a thymoquinone stock solution with a concentration of 5,120 μg/ml. Gentamicin sulfate was weighed and dissolved in water to produce a gentamicin sulfate stock solution with a concentration of 5,120 μg/ml, equivalent to gentamicin base.
(§4) Dilutions of thymoquinone and gentamicin sulfate stock solutions were prepared volumetrically in the MHB as follows:
(§5) One mL of original stock solution (5,120 μg/ml) was added to 9 ml sterile MHB to give the working first dilution (512 μg/mL). 12 sterile 7 mL PJ tubes were arranged in a rack in a row. Each tube contained one mL sterile MHB. Ten tubes were labeled as 128 μg/mL, 64 μg/mL, 32 μg/mL, 16 μg/mL, 8 μg/mL, 4 μg/mL, 2 μg/mL, 1 μg/mL, 0.5 μg/mL and 0.25 μg/mL. The eleventh and twelfth tubes were labeled as positive and negative control, respectively.
(§6) The working dilution (512 μg/mL) was serially diluted to give two-fold dilutions. One mL of the working dilution (512 μg/mL) was dispensed in the first tube (labeled as 128 μg/mL) to give a concentration of 256 μg drug/mL MHB. One mL of the first tube was added to the second tube (labeled as 64 μg/mL) to give a concentration of 128 μg drug/mL MHB. One mL of the second tube was transferred to the third tube (labeled as 32 μg/mL) to give a concentration of 64 μg drug/mL MHB. One mL of the third tube was added to the fourth tube (labeled as 16 μg/mL) to give a concentration of 32 μg drug/mL MHB. One mL of the fourth tube was dispensed in the fifth tube (labeled as 8 μg/mL) to give a concentration of 16 μg drug/mL MHB. One mL of the fifth tube was dispensed in the sixth tube (labeled as 4 μg/mL) to give a concentration of 8 μg drug/mL MHB. One mL of the sixth tube was added to the seventh tube (labeled as 2 μg/mL) to give a concentration of 4 μg drug/mL MHB. One mL of the seventh tube was added to the eighth tube (labeled as 1 μg/mL) to give a concentration of 2 μg drug/mL MHB. One mL of the eighth tube was transferred to the ninth tube (labeled as 0.5 μg/mL) to give a concentration of 1 μg drug/mL MHB. One mL of the ninth tube was transferred to the tenth tube (labeled as 0.25 μg/mL) to give a concentration of 0.5 μg drug/mL MHB. The contents were mixed thoroughly by pipetting up and down three times. One mL of the content of the tenth tube was discarded.
(§7) The inoculum suspensions (at 1-2×10^8 CFU/mL) were diluted 1:100 in MHB to obtain 1×10^6 CFU/mL. One mL of the diluted inoculum suspension (1×10^6 CFU/mL) was transferred to each tube except tube 12.
(§8) All inoculated tubes were incubated for 16-20 hours at 37° C. aerobically. […]

[2] = system: Acinetobacter baumannii isolates and Acinetobacter baumannii ATCC BAA 747; assay: as above
Experimental: as §1, §2, §3, §4, §5, §6, §7, §8

[3] = system: Acinetobacter baumannii isolates; assay: Antimicrobial susceptibility test, disc diffusion method (CLSI M100-S24); parameters: key to Inhibition zone: “NZ” indicated that no zone of inhibition was observed; details: for Inhibition zone: disc diffusion; for susceptibility category: AMX disc
Outline: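 Disc diffusion per CLSI M100-S24 on 33 MDR clinical A. baumannii isolates from burn wards; 0.5 McFarland inoculum swabbed onto Mueller-Hinton agar, incubated aerobically 35-37° C, 18-20 h. Zone diameters measured to nearest mm and categorized S/I/R by CLSI breakpoints.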

Compound: Gentamicin sulfate
- MIC [1]: ≤2 µg/mL
- MIC ([2]; A. baumannii ATCC BAA 747 (standard sensitive strain)): 1 µg/mL
- MIC ([2]; isolate AB7): 32 µg/mL
- MIC ([2]; isolate AB8): 64 µg/mL
- MIC ([2]; isolate AB10): 32 µg/mL
- MIC ([2]; isolate AB11): 32 µg/mL
- MIC ([2]; isolate AB12): 32 µg/mL
- MIC ([2]; isolate AB13): 32 µg/mL

Compound: CO[C@@]1(NC(=O)Cc2cccs2)C(=O)N2C(C(=O)O)=C(COC(N)=O)CS[C@@H]21 [FOX, Cefoxitin]
- Inhibition zone ([3]; isolate AB1): NZ
- Inhibition zone ([3]; isolate AB2): NZ
- Inhibition zone ([3]; isolate AB3): NZ
- Inhibition zone ([3]; isolate AB4): NZ
- Inhibition zone ([3]; isolate AB5): NZ
- Inhibition zone ([3]; isolate AB6): NZ
- Inhibition zone ([3]; isolate AB7): NZ
- Inhibition zone ([3]; isolate AB8): NZ
- Inhibition zone ([3]; isolate AB9): NZ
- Inhibition zone ([3]; isolate AB10): NZ
- Inhibition zone ([3]; isolate AB11): NZ
- Inhibition zone ([3]; isolate AB12): NZ
- Inhibition zone ([3]; isolate AB13): NZ
- Inhibition zone ([3]; isolate AB14): NZ
- Inhibition zone ([3]; isolate AB15): NZ
- Inhibition zone ([3]; isolate AB16): 22 mm
- Inhibition zone ([3]; isolate AB17): NZ
- Inhibition zone ([3]; isolate AB18): NZ
- Inhibition zone ([3]; isolate AB19): NZ
- Inhibition zone ([3]; isolate AB20): NZ
- Inhibition zone ([3]; isolate AB21): NZ
- Inhibition zone ([3]; isolate AB22): NZ
- Inhibition zone ([3]; isolate AB23): NZ
- Inhibition zone ([3]; isolate AB24): NZ
- Inhibition zone ([3]; isolate AB25): NZ
- Inhibition zone ([3]; isolate AB26): NZ
- Inhibition zone ([3]; isolate AB27): NZ
- Inhibition zone ([3]; isolate AB28): NZ
- Inhibition zone ([3]; isolate AB29): NZ
- Inhibition zone ([3]; isolate AB30): NZ
- Inhibition zone ([3]; isolate AB31): 9 mm
- Inhibition zone ([3]; isolate AB32): NZ
- Inhibition zone ([3]; isolate AB33): NZ

Compound: CC1(C)S[C@@H]2[C@H](NC(=O)[C@H](N)c3ccc(O)cc3)C(=O)N2[C@H]1C(=O)O [AMX, Amoxicillin]
- susceptibility category ([3]; isolate AB1): R (Resistant ≤13)
- Inhibition zone ([3]; isolate AB1): NZ
- susceptibility category ([3]; isolate AB2): R (Resistant ≤13)
- Inhibition zone ([3]; isolate AB2): NZ
- susceptibility category ([3]; isolate AB3): R (Resistant ≤13)
- Inhibition zone ([3]; isolate AB3): NZ
- susceptibility category ([3]; isolate AB4): R (Resistant ≤13)
- Inhibition zone ([3]; isolate AB4): NZ
- susceptibility category ([3]; isolate AB5): R (Resistant ≤13)
- Inhibition zone ([3]; isolate AB5): NZ
- susceptibility category ([3]; isolate AB6): R (Resistant ≤13)
- Inhibition zone ([3]; isolate AB6): NZ
- susceptibility category ([3]; isolate AB7): R (Resistant ≤13)
- Inhibition zone ([3]; isolate AB7): NZ
- susceptibility category ([3]; isolate AB8): R (Resistant ≤13)
- Inhibition zone ([3]; isolate AB8): NZ
- susceptibility category ([3]; isolate AB9): R (Resistant ≤13)
- Inhibition zone ([3]; isolate AB9): NZ
- susceptibility category ([3]; isolate AB10): R (Resistant ≤13)
- Inhibition zone ([3]; isolate AB10): NZ
- susceptibility category ([3]; isolate AB11): R (Resistant ≤13)
- Inhibition zone ([3]; isolate AB11): NZ
- susceptibility category ([3]; isolate AB12): R (Resistant ≤13)
- Inhibition zone ([3]; isolate AB12): NZ
- susceptibility category ([3]; isolate AB13): R (Resistant ≤13)
- Inhibition zone ([3]; isolate AB13): NZ
- susceptibility category ([3]; isolate AB14): R (Resistant ≤13)
- Inhibition zone ([3]; isolate AB14): NZ
- susceptibility category ([3]; isolate AB15): R (Resistant ≤13)
- Inhibition zone ([3]; isolate AB15): NZ
- susceptibility category ([3]; isolate AB16): R (Resistant ≤13)
- Inhibition zone ([3]; isolate AB16): NZ
- susceptibility category ([3]; isolate AB17): R (Resistant ≤13)
- Inhibition zone ([3]; isolate AB17): NZ
- susceptibility category ([3]; isolate AB18): R (Resistant ≤13)
- Inhibition zone ([3]; isolate AB18): NZ
- susceptibility category ([3]; isolate AB19): R (Resistant ≤13)
- Inhibition zone ([3]; isolate AB19): NZ
- susceptibility category ([3]; isolate AB20): R (Resistant ≤13)
- Inhibition zone ([3]; isolate AB20): NZ
- susceptibility category ([3]; isolate AB21): R (Resistant ≤13)
- Inhibition zone ([3]; isolate AB21): NZ
- susceptibility category ([3]; isolate AB22): R (Resistant ≤13)
- Inhibition zone ([3]; isolate AB22): NZ
- susceptibility category ([3]; isolate AB23): R (Resistant ≤13)
- Inhibition zone ([3]; isolate AB23): NZ
- susceptibility category ([3]; isolate AB24): R (Resistant ≤13)
- Inhibition zone ([3]; isolate AB24): NZ
- susceptibility category ([3]; isolate AB25): R (Resistant ≤13)
- Inhibition zone ([3]; isolate AB25): NZ
- susceptibility category ([3]; isolate AB26): R (Resistant ≤13)
- Inhibition zone ([3]; isolate AB26): NZ
- susceptibility category ([3]; isolate AB27): R (Resistant ≤13)
- Inhibition zone ([3]; isolate AB27): NZ
- susceptibility category ([3]; isolate AB28): R (Resistant ≤13)
- Inhibition zone ([3]; isolate AB28): 9 mm
- susceptibility category ([3]; isolate AB29): R (Resistant ≤13)
- Inhibition zone ([3]; isolate AB29): NZ
- susceptibility category ([3]; isolate AB30): R (Resistant ≤13)
- Inhibition zone ([3]; isolate AB30): NZ
- susceptibility category ([3]; isolate AB31): R (Resistant ≤13)
- Inhibition zone ([3]; isolate AB31): 8 mm
- susceptibility category ([3]; isolate AB32): R (Resistant ≤13)
- Inhibition zone ([3]; isolate AB32): 8 mm
- susceptibility category ([3]; isolate AB33): R (Resistant ≤13)
- Inhibition zone ([3]; isolate AB33): NZ
